Measured values: patent publication US20090022915A1, “PARTICLE AND PREPARATION CONTAINING THE PARTICLE” (ONO PHARMACEUTICAL CO., LTD.,, priority 2005, published 2009)

Key:
[1] = Absorption test, pulmonary administration (2 mg/kg) of suspension; assay type: in vivo, rhesus monkeys
Description: 1. Pulmonary Administration (2 mg/kg)
Each of three male rhesus monkeys (mean body weight: 3.35 kg, age: 5) was anesthetized with ketamine and, after inserting a bronchial catheter and inserting an administration tube inside the catheter, the suspension produced in Preparation Example 1 was administered into the lung in a dose of 2 mg/kg. Before and after administration (0.25, 0.5, 1, 2, 3, 4, 6, and 8 hours), blood was collected from the cubital cutaneous vein and the obtained blood was centrifugally separated to obtain blood plasma, and then the concentration of the compound 1 was measured.
(§1) 5. Intravenous Administration (0.4 mg/kg)
(§2) The preparation produced in Comparative Example 3 was intravenously administered to each of three male cynomolgus monkeys (mean body weight: 4 kg, age: 5 to 6) in the concentration of 0.4 mg/kg. After administration, blood was collected from the cubital cutaneous vein and the obtained blood was centrifugally separated to obtain blood plasma, and then the concentration of the compound 1 was measured.
(§3) Also, a bioavailability (BA (%)) was calculated from the obtained results.
(§4) BA denotes a numerical value represented by “(AUC of pulmonary administration/dose of pulmonary administration)/(AUC of intravenous administration/dose of intravenous administration)×100” (%), and AUC denotes an area under the blood concentration time curve (ng·hr/ml).

[2] = Absorption test, oral administration (3 mg/kg) of microemulsion preparation; assay type: in vivo; settings: rhesus monkey, plasma, preparation of Comparative Example 1, male rhesus monkeys, relative to intravenous 0.4 mg/kg, read-out: bioavailability (BA)
Description: 3. Oral Administration (3 mg/kg)
An oral administration tube was inserted through the mouth of each of three male rhesus monkeys (mean body weight: 3.5 kg, age: 3) and 5.25 mL (3 mg/kg) of the preparation produced in Comparative Example 1 was orally administrated. After administration (0.5, 1, 2, 4, and 6 hours), blood was collected from the cubital cutaneous vein and the obtained blood was centrifugally separated to obtain blood plasma, and then the concentration of the compound 1 was measured.
as §1, §2, §3, §4

[3] = Absorption test, pulmonary administration (0.2 mg/kg) of suspension; assay type: in vivo; settings: cynomolgus monkey, plasma, suspension of Preparation Example 2, male cynomolgus monkeys, relative to intravenous 0.4 mg/kg, read-out: bioavailability (BA)
Description: 2. Pulmonary Administration (0.2 mg/kg)
Each of three male cynomolgus monkeys (mean body weight: 3.5 to 4.5 kg, age: 5 to 6) was anesthetized with ketamine and, after inserting a bronchial catheter and inserting an administration tube inside the catheter, the suspension produced in Preparation Example 2 was administered into the lung in a dose of 0.2 mg/kg. Before and after administration (0.25, 0.5, 1, 2, 3, 4, 8 and 12 hours), blood was collected from the cephalic vein and the obtained blood was centrifugally separated to obtain blood plasma, and then the concentration of the compound 1 was measured.
as §1, §2, §3, §4

[4] = Particle size measurement by laser diffraction particle size distribution analyzer; assay type: physicochemical; settings: volume mean diameter
Description: The “mean particle size” means a particle size which represents a group of particles, when the group of particles is composed of a lot of particles each having a non-uniform size. The mean particle size includes, but is not limited to, weighting averages such as a number mean diameter, a length mean diameter, an area mean diameter, a volume mean diameter and the like, and means the volume mean diameter in the present invention.
For the measurement of the particle size, a hexane solution (20 mM) of Aerosol OT was used as a disperse medium. Particles to be measured were placed in a test tube and 1 mL of the disperse medium was added to obtain a suspension. The suspension was subjected to an ultrasonic treatment for one minute and the particle size was measured using a laser diffraction particle size distribution analyzer (SALD-2100: Shimadzu Corporation). In the case of measuring the particle size of particles in the suspension, an aqueous 0.1% Polysorbate 80 solution was used as the disperse medium in place of Aerosol OT.

Solubility in water = assay type: physicochemical

- improvement in BA ([1]; pulmonary administration versus oral administration): ≥ 450 times
- bioavailability ([1]; rhesus monkey, plasma, pulmonary administration 2 mg/kg, suspension of Preparation Example 1, male rhesus monkeys, relative to intravenous 0.4 mg/kg, read-out: bioavailability (BA)): 93.4%
- bioavailability [2]: 0.2%
- bioavailability [3]: 103%
- Mean particle size (μm) [4]: about 120 μm
- solubility in water (Solubility in water): poorly soluble in water
SMILES: CC(C)(C)OC(=O)N1CSC[C@H]1C(=O)N[C@@H](CSCC1CCCCC1)C(=O)NC1CCN(Cc2ccccc2)CC1 [compound 1, Tert-butyl (4R)-4-{[((1R)-2-[(1-benzylpiperidin-4-yl)amino]-1-{[(cyclohexylmethyl)thio]methyl}-2-oxoethyl)amino]carbonyl}-1,3-thiazolidine-3-carboxylate]
